Here are results for twelve compounds from ChEMBL document CHEMBL5291721, “A preclinical secondary pharmacology resource illuminates target-adverse drug reaction associations of marketed drugs” (Nat Commun, 2023).

For test [1], the target named is Vasopressin V2 receptor (Homo sapiens, UniProt P30518).
Test [2] concerns the target T1, Type-1 angiotensin II receptor (Homo sapiens, UniProt P30556).
T1 sequence (P30556 whole entry): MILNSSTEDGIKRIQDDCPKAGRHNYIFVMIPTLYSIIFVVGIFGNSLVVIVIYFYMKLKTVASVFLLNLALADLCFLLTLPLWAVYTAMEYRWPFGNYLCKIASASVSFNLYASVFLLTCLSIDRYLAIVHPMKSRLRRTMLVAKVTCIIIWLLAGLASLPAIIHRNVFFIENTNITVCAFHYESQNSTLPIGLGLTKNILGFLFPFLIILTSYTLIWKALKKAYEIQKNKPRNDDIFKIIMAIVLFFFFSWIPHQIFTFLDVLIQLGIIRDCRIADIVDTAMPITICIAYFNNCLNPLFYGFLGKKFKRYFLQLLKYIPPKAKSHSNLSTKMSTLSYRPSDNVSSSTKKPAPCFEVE

Test [3] concerns the target Melanocortin receptor 3 (Homo sapiens, UniProt P41968).
Test [4] has as its target T2, Prostaglandin G/H synthase 1 (Rattus norvegicus, UniProt Q63921).
T2 sequence (Q63921 whole entry): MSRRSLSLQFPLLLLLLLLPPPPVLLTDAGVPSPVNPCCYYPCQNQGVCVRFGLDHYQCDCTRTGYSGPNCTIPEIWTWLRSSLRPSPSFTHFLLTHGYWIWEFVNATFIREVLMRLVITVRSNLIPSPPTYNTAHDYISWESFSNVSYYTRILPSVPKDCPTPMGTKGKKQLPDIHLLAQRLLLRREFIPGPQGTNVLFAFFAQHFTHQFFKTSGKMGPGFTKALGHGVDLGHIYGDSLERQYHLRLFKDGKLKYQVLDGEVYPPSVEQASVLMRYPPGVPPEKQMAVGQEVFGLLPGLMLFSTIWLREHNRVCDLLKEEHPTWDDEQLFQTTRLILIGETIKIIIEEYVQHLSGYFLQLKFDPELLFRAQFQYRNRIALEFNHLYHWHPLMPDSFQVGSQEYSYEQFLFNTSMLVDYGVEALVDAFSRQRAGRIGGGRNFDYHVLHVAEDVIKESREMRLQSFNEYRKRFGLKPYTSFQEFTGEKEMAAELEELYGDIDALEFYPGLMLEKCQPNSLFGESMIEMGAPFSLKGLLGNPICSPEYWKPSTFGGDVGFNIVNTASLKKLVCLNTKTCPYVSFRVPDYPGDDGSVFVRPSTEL
The class given is functional.

Test [5] concerns the target T3, Adenosine receptor A1 (Homo sapiens, UniProt P30542).
T3 sequence (P30542 whole entry): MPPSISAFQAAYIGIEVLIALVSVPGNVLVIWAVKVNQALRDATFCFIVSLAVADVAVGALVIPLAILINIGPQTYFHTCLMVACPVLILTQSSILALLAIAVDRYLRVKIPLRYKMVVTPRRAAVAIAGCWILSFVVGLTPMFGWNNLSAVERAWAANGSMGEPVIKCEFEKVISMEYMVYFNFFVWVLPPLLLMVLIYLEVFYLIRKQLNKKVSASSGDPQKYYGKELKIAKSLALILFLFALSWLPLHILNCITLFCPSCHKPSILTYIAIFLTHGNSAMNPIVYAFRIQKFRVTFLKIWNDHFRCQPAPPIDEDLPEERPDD

Test [6] deals with T4, Endothelin-1 receptor (Homo sapiens, UniProt P25101).
T4 sequence (P25101 whole entry): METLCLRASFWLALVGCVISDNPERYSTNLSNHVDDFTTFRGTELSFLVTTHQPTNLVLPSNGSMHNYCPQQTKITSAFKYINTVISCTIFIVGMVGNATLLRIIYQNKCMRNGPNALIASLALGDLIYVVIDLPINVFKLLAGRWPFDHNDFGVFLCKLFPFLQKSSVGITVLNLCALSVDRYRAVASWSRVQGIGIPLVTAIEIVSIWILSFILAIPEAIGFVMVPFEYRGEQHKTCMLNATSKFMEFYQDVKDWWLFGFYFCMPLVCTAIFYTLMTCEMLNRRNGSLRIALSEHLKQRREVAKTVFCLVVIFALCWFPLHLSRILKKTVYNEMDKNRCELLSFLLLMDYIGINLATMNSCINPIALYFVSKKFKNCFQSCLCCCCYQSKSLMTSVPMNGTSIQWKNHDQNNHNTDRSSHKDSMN

In test [7] the target is Motilin receptor (Homo sapiens, UniProt O43193).
Test [8] concerns the target Histamine H2 receptor (Homo sapiens, UniProt P25021). The class given is functional, cell-based.
Test [9] addresses D(1A) dopamine receptor (Homo sapiens, UniProt P21728). The class given is functional, cell-based.
Test [10] addresses Glutamate receptor ionotropic, NMDA 1 (Rattus norvegicus, UniProt P35439).
Test [11] concerns the target T5, 5-hydroxytryptamine receptor 3A (Homo sapiens, UniProt P46098).
T5 sequence (P46098 whole entry): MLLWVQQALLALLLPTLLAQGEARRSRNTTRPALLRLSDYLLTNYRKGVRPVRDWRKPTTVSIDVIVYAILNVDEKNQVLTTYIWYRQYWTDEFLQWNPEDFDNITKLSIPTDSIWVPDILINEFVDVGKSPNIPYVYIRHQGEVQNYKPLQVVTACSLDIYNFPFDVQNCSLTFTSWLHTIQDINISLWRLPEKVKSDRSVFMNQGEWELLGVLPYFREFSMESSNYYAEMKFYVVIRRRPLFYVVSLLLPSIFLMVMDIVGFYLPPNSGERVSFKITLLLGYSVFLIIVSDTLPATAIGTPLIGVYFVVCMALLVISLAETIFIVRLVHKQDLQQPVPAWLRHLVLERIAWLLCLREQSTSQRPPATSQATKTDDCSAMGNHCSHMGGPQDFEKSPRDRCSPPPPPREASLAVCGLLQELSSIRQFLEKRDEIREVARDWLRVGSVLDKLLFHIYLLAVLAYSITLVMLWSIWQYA
Format: functional.

Test [12] has as its target Delta-type opioid receptor (Homo sapiens, UniProt P41143).
Test [13] deals with Kappa-type opioid receptor (Homo sapiens, UniProt P41145).
Also: assay procedure not described here.

Sequence of Delta-type opioid receptor (P41143 whole entry): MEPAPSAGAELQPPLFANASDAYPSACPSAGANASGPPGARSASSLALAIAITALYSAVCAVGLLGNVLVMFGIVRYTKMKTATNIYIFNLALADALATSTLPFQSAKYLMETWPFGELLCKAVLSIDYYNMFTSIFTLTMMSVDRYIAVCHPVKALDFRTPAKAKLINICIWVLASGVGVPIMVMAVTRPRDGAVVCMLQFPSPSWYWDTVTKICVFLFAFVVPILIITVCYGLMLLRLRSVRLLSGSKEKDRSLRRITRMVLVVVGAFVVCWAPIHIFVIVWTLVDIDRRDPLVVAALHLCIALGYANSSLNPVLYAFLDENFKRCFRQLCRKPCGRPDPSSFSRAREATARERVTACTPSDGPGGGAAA
Sequence of Histamine H2 receptor (P25021 whole entry): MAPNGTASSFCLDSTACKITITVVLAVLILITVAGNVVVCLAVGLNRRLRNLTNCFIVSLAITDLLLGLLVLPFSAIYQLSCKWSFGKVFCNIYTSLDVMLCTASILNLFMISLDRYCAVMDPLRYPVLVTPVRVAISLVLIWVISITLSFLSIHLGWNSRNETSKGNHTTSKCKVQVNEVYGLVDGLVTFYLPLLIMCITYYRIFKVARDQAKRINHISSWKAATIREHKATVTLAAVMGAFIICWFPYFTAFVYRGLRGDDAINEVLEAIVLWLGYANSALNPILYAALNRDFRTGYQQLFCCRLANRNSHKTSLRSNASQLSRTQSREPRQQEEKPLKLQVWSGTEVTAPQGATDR
Sequence of Kappa-type opioid receptor (P41145 whole entry): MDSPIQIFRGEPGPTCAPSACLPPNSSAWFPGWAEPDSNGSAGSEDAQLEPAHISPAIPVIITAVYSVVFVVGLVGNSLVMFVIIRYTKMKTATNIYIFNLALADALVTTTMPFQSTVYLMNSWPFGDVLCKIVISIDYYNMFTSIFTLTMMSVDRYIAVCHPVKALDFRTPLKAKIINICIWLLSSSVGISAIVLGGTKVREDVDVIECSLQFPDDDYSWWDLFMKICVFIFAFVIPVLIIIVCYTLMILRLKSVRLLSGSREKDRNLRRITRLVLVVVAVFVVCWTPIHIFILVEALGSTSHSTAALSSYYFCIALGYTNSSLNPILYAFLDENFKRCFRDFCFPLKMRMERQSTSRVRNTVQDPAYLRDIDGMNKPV
Sequence of Motilin receptor (O43193 whole entry): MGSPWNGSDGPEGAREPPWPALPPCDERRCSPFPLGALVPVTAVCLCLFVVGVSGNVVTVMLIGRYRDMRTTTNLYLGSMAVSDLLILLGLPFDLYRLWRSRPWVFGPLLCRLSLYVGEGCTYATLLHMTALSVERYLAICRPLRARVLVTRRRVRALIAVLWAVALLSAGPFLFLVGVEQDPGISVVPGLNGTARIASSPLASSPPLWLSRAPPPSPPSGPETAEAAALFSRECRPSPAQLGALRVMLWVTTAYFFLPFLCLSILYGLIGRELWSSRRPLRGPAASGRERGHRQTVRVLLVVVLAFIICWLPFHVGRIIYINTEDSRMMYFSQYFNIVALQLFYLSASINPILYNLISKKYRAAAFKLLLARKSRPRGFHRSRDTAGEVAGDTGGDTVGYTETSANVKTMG
Sequence of Melanocortin receptor 3 (P41968 whole entry): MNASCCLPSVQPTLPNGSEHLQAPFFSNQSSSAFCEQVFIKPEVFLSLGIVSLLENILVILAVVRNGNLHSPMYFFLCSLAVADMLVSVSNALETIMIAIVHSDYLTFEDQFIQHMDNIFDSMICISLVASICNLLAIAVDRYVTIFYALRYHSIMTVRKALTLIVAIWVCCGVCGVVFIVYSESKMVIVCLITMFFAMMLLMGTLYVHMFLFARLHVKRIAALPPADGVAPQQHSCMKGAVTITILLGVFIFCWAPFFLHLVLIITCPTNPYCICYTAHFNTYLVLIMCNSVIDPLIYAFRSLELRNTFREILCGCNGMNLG
Sequence of Vasopressin V2 receptor (P30518 whole entry): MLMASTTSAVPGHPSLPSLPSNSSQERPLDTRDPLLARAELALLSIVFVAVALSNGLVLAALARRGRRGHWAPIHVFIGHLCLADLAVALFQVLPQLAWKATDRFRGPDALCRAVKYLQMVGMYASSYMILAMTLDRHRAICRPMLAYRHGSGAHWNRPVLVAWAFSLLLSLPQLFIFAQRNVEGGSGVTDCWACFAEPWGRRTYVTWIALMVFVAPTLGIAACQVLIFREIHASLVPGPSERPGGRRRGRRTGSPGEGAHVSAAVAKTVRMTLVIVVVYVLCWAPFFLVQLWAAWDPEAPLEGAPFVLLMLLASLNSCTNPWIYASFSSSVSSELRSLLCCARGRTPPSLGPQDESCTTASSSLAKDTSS
Sequence of D(1A) dopamine receptor (P21728 whole entry): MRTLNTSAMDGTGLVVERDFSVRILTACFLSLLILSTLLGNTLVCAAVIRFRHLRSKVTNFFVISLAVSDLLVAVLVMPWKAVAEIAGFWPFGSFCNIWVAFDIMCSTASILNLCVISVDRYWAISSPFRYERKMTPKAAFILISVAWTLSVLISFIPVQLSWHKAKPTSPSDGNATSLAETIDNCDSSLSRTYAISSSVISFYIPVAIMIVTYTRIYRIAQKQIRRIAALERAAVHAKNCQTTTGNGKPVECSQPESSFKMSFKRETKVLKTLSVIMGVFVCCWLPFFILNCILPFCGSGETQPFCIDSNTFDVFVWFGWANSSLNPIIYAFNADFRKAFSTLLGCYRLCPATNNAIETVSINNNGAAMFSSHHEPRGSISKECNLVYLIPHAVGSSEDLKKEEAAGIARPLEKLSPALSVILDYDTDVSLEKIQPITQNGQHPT

`CN(C)C(=O)Oc1cc(OC(=O)N(C)C)cc(C(O)CNC(C)(C)C)c1` (stereo unspecified) [BAMBUTEROL]: the half-maximal activity concentration (AC50) in test [1], in test [2], in test [3], in test [4], in [5] and in test [6] was over 30 µM each time. The AC50 (in general, the midpoint of the concentration-response curve, whichever way the signal moves) in test [7] is over 30 µM.

For the compound `CO[C@@]1(NC(=O)CSCC#N)C(=O)N2C(C(=O)O)=C(CSc3nnnn3C)CS[C@@H]21` [CEFMETAZOLE], the AC50 in test [8], in test [9], in test [10], in test [11], in test [12] and in test [13] was over 30 µM each time.

Consider `CO/N=C(\C(=O)N[C@@H]1C(=O)N2C(C(=O)[O-])=C(C[n+]3cccc4c3CCC4)CS[C@H]12)c1csc(N)n1` [CEFPIROME], for which the AC50 in [8], in test [9], in [10], in [11], in test [12] and in test [13] was over 30 µM in each case.

Consider `CC[C@H]1OC(=O)[C@H](C)[C@@H](O[C@H]2C[C@@](C)(OC)[C@@H](O)[C@H](C)O2)[C@H](C)[C@@H](O[C@@H]2O[C@H](C)C[C@H](N(C)C)[C@H]2O)[C@](C)(OC)C[C@@H](C)C(=O)[C@H](C)[C@@H](O)[C@]1(C)O` [CLARITHROMYCIN], for which the half-maximal activity concentration (AC50) in [8], in [1], in test [2], in test [3], in test [9] and in test [4] was over 30 µM each time. Besides, the AC50 in test [5], in test [6] and in test [7] was over 30 µM each time.

On to `Oc1c(I)cc(Cl)c2cccnc12` [CLIOQUINOL], for which the AC50 is over 30 µM in test [8]; over 30 µM in [9]; 13 µM in [10]; over 30 µM in test [11]; over 30 µM in [12]; over 30 µM in [13].

For `C[C@@H]1CCC[C@H](C)N1NC(=O)c1ccc(Cl)c(S(N)(=O)=O)c1` [CLOPAMIDE], the AC50 in [8], in test [1], in [2], in test [3], in test [9] and in [4] was over 30 µM in each case. The AC50 in test [5], in [6], in test [10], in test [11], in test [12] and in [13] was over 30 µM throughout. For the same compound, the AC50 in test [7] was over 30 µM.

For the compound `O=C(O)CSCC(=O)NC1CCSC1=O` (stereo unspecified) [ERDOSTEINE], the AC50 in [8], in test [1], in test [2], in test [3], in test [9] and in test [4] was over 30 µM each time. The AC50 in [5], in test [6], in test [10], in [11], in test [12] and in test [13] was over 30 µM throughout. The same compound gave an AC50 in test [7] of over 30 µM.

As to `COc1cccc(N(C)C(=S)Oc2ccc3c(c2)CCCC3)n1` [LIRANAFTATE], the AC50 in test [8], in [1], in [2], in test [3], in test [9] and in test [4] was over 30 µM throughout. The AC50 in test [5] is over 30 µM; in [6], over 30 µM; in [10], over 30 µM; in test [11] it was over 30 µM; in test [12], over 30 µM; in test [13] it was 1.5 µM. The AC50 in test [7] was over 30 µM.

Take `N=C(N)c1ccc2cc(OC(=O)c3ccc(N=C(N)N)cc3)ccc2c1` [NAFAMOSTAT]: the AC50 in test [8], in test [1], in [2], in [3], in [9] and in [4] was over 30 µM in each case. Further, the AC50 in [5] was over 30 µM; in [6], over 30 µM; in test [10], 0.29 µM; in test [11], 14 µM; in test [13] it was 17 µM; in test [7] it was 27 µM.

Consider `O=C(O)c1cc(O)c2c3nc4ccccc4oc-3cc(=O)c2n1` [PIRENOXINE], for which the AC50 in test [8], in [1], in test [2], in test [3], in test [9] and in test [4] was over 30 µM throughout. The AC50 in [5] was over 30 µM; in test [6], over 30 µM; in test [10], over 30 µM; in test [11], 2.6 µM; in test [12], 2.2 µM; in test [13], over 30 µM. Besides, the AC50 in test [7] is over 30 µM.

`NS(=O)(=O)c1cc(C(=O)O)cc(N2CCCC2)c1Oc1ccccc1` [PIRETANIDE]: the AC50 in [8], in test [1], in test [2], in test [3], in [9] and in test [4] was over 30 µM each time. Besides, the concentration at half-maximal activity (AC50) in test [5], in [6], in [10], in test [11], in test [12] and in test [13] was over 30 µM each time. Moreover, the AC50 in test [7] was over 30 µM.

Take `O=C(CCCN1CCC2(CC1)C(=O)NCN2c1ccccc1)c1ccc(F)cc1` [SPIPERONE]: the AC50 in test [8], in [1], in [2], in test [3], in test [4] and in test [5] was over 30 µM throughout. For the same compound, the AC50 in test [6], in test [10], in [11] and in test [7] was over 30 µM throughout.
